Results as given in the supplement of paper PMC4858399.
Structures can show the parent of a compound that is named as a salt.

How the values were obtained:
Conditions in all cases: exposure time 48 h
[1] = test system: Caenorhabditis elegans N2; experiment: AC50 for larval growth inhibition (Hill fit); higher = less potent
Summary of the method: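 Synchronised C. elegans N2 L1 larvae (50 per well, 96-well plates) were grown for 48 h at 20°C in K-medium with killed OP50, 1% DMSO and 0.5–200 µM chemical. The COPAS Biosort measured each worm's size as extinction, which was log-transformed and averaged per well. AC50 came from a constrained Hill fit by weighted genetic-algorithm regression on wells with at least 10 worms. Out-of-range values are censored.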

[2] = test system: Caenorhabditis elegans N2; experiment: lowest effective concentration for larval growth inhibition (size below effect threshold); higher = less potent
Summary of the method: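 Log-transformed well means of per-worm extinction, read as size on a Biosort, came from 50 C. elegans N2 L1 larvae per 96-well grown 48 h at 20°C in K-medium with killed bacteria, 1% DMSO and 0.5 to 200 µM chemical. The lowest effective concentration is the first dose at which the plate-adjusted mean size is below the threshold and stays below it at every higher dose. The threshold is 5.665.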

[3] = test system: Caenorhabditis elegans N2; experiment: mean nematode size ln(EXT) after 48 h, plate-adjusted (DMSO control set to 6) (ln(EXT), control-adjusted); higher = larger nematodes / less growth inhibition
Summary of the method: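 Worms were measured individually for extinction on the Biosort after 48 h at 20°C. They began as synchronised C. elegans N2 L1 larvae in K-medium with killed OP50, 1% DMSO and 0.5–200 µM chemical. Once debris had been removed by a growth model, values were natural-logged and averaged per well to give mean size. The plate adjustment subtracted the vehicle control mean and added 6.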

Row | SMILES | AC50 for larval growth inhibition [1] [µM] | lowest effective concentration [2] [µM] | mean nematode size ln(EXT) (ln) ([3]; 0.5 µM) | mean nematode size ln(EXT) (ln) ([3]; 1 µM) | mean nematode size ln(EXT) (ln) ([3]; 5 µM) | mean nematode size ln(EXT) (ln) ([3]; 10 µM) | mean nematode size ln(EXT) (ln) ([3]; 50 µM) | mean nematode size ln(EXT) (ln) ([3]; 100 µM) | mean nematode size ln(EXT) (ln) ([3]; 200 µM)
1 | Cn1cc(-c2ccccc2)c(=O)c(-c2cccc(C(F)(F)F)c2)c1 [Fluridone] | 52 | 100 | 6 | 5.95 | 5.96 | 5.88 | 5.69 | 4.25 | 5.6
2 | CCCCCCC(C)OC(=O)COc1nc(F)c(Cl)c(N)c1Cl (centres undefined) [Fluroxypyr-meptyl] | 185 | 200 | 5.84 | 5.84 | 6.02 | 5.94 | 5.83 | 6.29 | 4.64
3 | Nc1c(Cl)c(F)nc(OCC(=O)O)c1Cl [Fluroxypyr] | > 200 | 200 | 5.6 | 5.62 | 5.73 | 5.61 | 5.75 | 5.78 | 5.64
4 | C[Si](Cn1cncn1)(c1ccc(F)cc1)c1ccc(F)cc1 [Flusilazole] | 43.2 | 5 | 5.73 | 5.67 | 5.55 | 5.53 | 4.57 | 3.63 | 3.47
5 | CC(C)C(=O)Nc1ccc([N+](=O)[O-])c(C(F)(F)F)c1 [Flutamide] | 112 | 10 | 5.89 | 5.88 | 5.89 | 5.62 | 4.96 | 4.82 | 4.05
6 | CC(C)Oc1cccc(NC(=O)c2ccccc2C(F)(F)F)c1 [Flutolanil] | 192 | 200 | 5.94 | 5.98 | 6.08 | 6.01 | 5.5 | 6.3 | 5.43
7 | O=C1c2ccccc2C(=O)N1SC(Cl)(Cl)Cl [Folpet] | > 200 | 50 | 5.89 | 5.98 | 5.57 | 5.84 | 5.53 | 5.55 | 5.09
8 | CS(=O)(=O)NC(=O)c1cc(Oc2ccc(C(F)(F)F)cc2Cl)ccc1[N+](=O)[O-] [Fomesafen] | 180 | 200 | 5.93 | 5.95 | 5.95 | 5.95 | 5.89 | 6 | 5.52
9 | O=C(Nc1ccccc1)Nc1ccnc(Cl)c1 [Forchlorfenuron] | > 200 | 50 | 5.77 | 5.96 | 5.81 | 5.82 | 5.44 | 5.54 | 4.5
10 | CNC(=O)Oc1cccc(/N=C/N(C)C)c1 [Formetanate hydrochloride] | 62.8 | 100 | 5.85 | 6.01 | 6 | 5.93 | 5.73 | 5.59 | 5.47
11 | CCOP(=O)(SC(C)CC)N1CCSC1=O (centres undefined) [Fosthiazate] | 93.1 | 200 | 5.92 | 5.99 | 6.15 | 6.12 | 5.94 | 5.79 | 5.64
12 | O=c1c(-c2ccc(O)cc2)coc2cc(O)cc(O)c12 [Genistein] | > 200 | 200 | 5.88 | 5.89 | 5.92 | 5.85 | 5.89 | 5.89 | 5.53
13 | CC(=O)OC/C=C(\C)CCC=C(C)C [Geranyl acetate] | > 200 | 200 | 5.79 | 5.76 | 5.73 | 5.81 | 5.7 | 5.74 | 5.61
14 | OCC(O)CO [Glycerol] | > 200 | 200 | 5.83 | 5.87 | 5.84 | 5.75 | 5.87 | 5.87 | 5.66
15 | O=C(CCCN1CCC(O)(c2ccc(Cl)cc2)CC1)c1ccc(F)cc1 [Haloperidol] | 43.3 | 10 | 5.95 | 5.85 | 5.93 | 5.66 | 4.99 | 4.71 | 4.44
16 | ClC1=C(Cl)C2(Cl)C3C(Cl)C=CC3C1(Cl)C2(Cl)Cl (centres undefined) [Heptachlor] | 6.11 | 5 | 5.7 | 5.98 | 5.24 | 4.13 | 4.03 | 3.97 | 3.44
17 | O=S(=O)(O)C(F)(F)C(F)(F)C(F)(F)C(F)(F)C(F)(F)C(F)(F)C(F)(F)C(F)(F)F [Heptadecafluorooctanesulfonic acid potassium salt] | 11.4 | ≤ 0.5 | 5.46 | 5.57 | 5.12 | 4.63 | 3.8 | 3.62 | 3.47
18 | CCCCCCC(=O)O [Heptanoic acid] | > 200 | 200 | 5.88 | 5.97 | 5.87 | 6.04 | 5.85 | 5.87 | 5.43

Row | SMILES | AC50 for larval growth inhibition [1] [µM] | lowest effective concentration [2] [µM] | mean nematode size ln(EXT) (ln) ([3]; 0.5 µM) | mean nematode size ln(EXT) (ln) ([3]; 1 µM) | mean nematode size ln(EXT) (ln) ([3]; 5 µM) | mean nematode size ln(EXT) (ln) ([3]; 10 µM) | mean nematode size ln(EXT) (ln) ([3]; 50 µM) | mean nematode size ln(EXT) (ln) ([3]; 100 µM) | mean nematode size ln(EXT) (ln) ([3]; 200 µM)
19 | CCCCC(O)(Cn1cncn1)c1ccc(Cl)cc1Cl (centres undefined) [Hexaconazole] | 84.2 | 100 | 5.86 | 5.78 | 5.71 | 5.99 | 5.81 | 4.65 | 4.09
20 | O=C(NC(=O)c1c(F)cccc1F)Nc1cc(Cl)c(OC(F)(F)C(F)F)c(Cl)c1 [Hexaflumuron] | > 200 | 10 | 5.94 | 5.96 | 5.8 | 5.64 | 5.5 | 5.44 | 4.83
21 | CN(C)c1ccc(C(=C2C=CC(=[N+](C)C)C=C2)c2ccc(N(C)C)cc2)cc1 [Hexamethyl-p-rosaniline chloride] | < 0.5 | ≤ 0.5 | 4.79 | 4.53 | 4.01 | 3.85 | 3.66 | 4.08 | 4.02
22 | CN(C)c1nc(=O)n(C2CCCCC2)c(=O)n1C [Hexazinone] | 109 | 200 | 5.85 | 5.89 | 5.89 | 5.92 | 6 | 5.92 | 5.62
23 | C[C@@H]1[C@@H](c2ccc(Cl)cc2)SC(=O)N1C(=O)NC1CCCCC1 [Hexythiazox] | 122 | 100 | 6.07 | 5.94 | 5.91 | 5.99 | 5.68 | 5.34 | 3.24
24 | CC(=O)S[C@H](C(=O)N[C@H]1Cc2ccccc2[C@H]2CCC[C@@H](C(=O)O)N2C1=O)C(C)C [Ilepatril] | > 200 | 200 | 5.89 | 5.83 | 5.76 | 5.88 | 5.84 | 5.8 | 5.58
25 | C=CCOC(Cn1ccnc1)c1ccc(Cl)cc1Cl (centres undefined) [Imazalil] | > 200 | 200 | 5.91 | 6.17 | 6.07 | 5.99 | 5.83 | 5.74 | 4.6
26 | Cc1cnc(C2=NC(=O)C(C)(C(C)C)N2)c(C(=O)O)c1 (centres undefined) [Imazapic] | 79.6 | 50 | 5.98 | 6.06 | 6.04 | 6.23 | 5.45 | 4.31 | 3.54
27 | O=[N+]([O-])/N=C1\NCCN1Cc1ccc(Cl)nc1 [Imidacloprid] | 111 | 100 | 5.78 | 6.02 | 6.07 | 6.08 | 5.96 | 5.54 | 4.86
28 | COC(=O)N(C(=O)N1CO[C@@]2(C(=O)OC)Cc3cc(Cl)ccc3C2=N1)c1ccc(OC(F)(F)F)cc1 [Indoxacarb] | 6.41 | 5 | 6 | 5.91 | 5.25 | 4.02 | 3.6 | 3.56 | 3.48
29 | O=C(N[C@@H](Cc1ccccc1)[C@@H](O)C(=O)N1C[C@@H](O)[C@@H](O)C1)c1cc2cc(Cl)ccc2[nH]1 [Ingliforib] | > 200 | 100 | 5.94 | 5.79 | 5.75 | 5.85 | 5.79 | 5.46 | 5.44
30 | CC(C)NC(=O)N1CC(=O)N(c2cc(Cl)cc(Cl)c2)C1=O [Iprodione] | > 200 | 200 | 5.99 | 5.95 | 5.85 | 6.06 | 5.87 | 5.8 | 5.4
31 | CCOP(=S)(OCC)Oc1nc(Cl)n(C(C)C)n1 [Isazofos] | 3.38 | ≤ 0.5 | 4.88 | 5.05 | 4.5 | 4.43 | 3.8 | 3.59 | 3.78
32 | C=CC(=O)OCCCCCC(C)C [Isooctyl acrylate] | > 200 | 200 | 5.42 | 5.47 | 5.59 | 5.64 | 5.7 | 5.68 | 5.52
33 | O=C(O)c1cccc(C(=O)O)c1 [Isophthalic acid] | > 200 | 200 | 5.93 | 5.83 | 5.85 | 5.87 | 5.8 | 5.82 | 4.8
34 | CCCN(CCC)c1c([N+](=O)[O-])cc(C(C)C)cc1[N+](=O)[O-] [Isopropalin] | > 200 | 50 | 5.89 | 5.9 | 5.87 | 5.73 | 5.47 | 5.14 | 4.96
35 | CS(=O)(=O)c1cc(C(F)(F)F)ccc1C(=O)c1cnoc1C1CC1 [Isoxaflutole] | > 200 | 200 | 6.11 | 6.29 | 6.22 | 6.31 | 6.07 | 6.15 | 5.61
36 | O=C1C2(Cl)C3(Cl)C4(Cl)C(Cl)(Cl)C5(Cl)C3(Cl)C1(Cl)C5(Cl)C24Cl (centres undefined) [Kepone (Chlordecone)] | 3.31 | 1 | 5.67 | 5.53 | 4.74 | 4.04 | 3.69 | 3.63 | 4.06
